Paper PMC5343914, “Phytochemical Analysis of Agrimonia pilosa Ledeb, Its Antioxidant Activity and Aldose Reductase Inhibitory Potential” (International Journal of Molecular Sciences, 2017)
Read-outs that look alike come from different tables or passages of the source.

Key:
[1] = system: sorbitol accumulation in rat lenses; test: Lens culture and intracellular sorbitol measurement (ex vivo); settings: compound 5.0 μg/mL; for Inhibition (%) of sorbitol accumulation in rat lens: isolated rat lens ex vivo; for Sorbitol Content (mg)/Lens Wet Weight (g): isolated rat lens, 30 mM glucose medium, 6 d
Method: Lenses isolated from 10-week-old Sprague–Dawley rats using the registration number mentioned in the section of 4.5 were cultured for 6 d in TC-199 medium that contained 15% fetal bovine serum, 100 units/mL penicillin, and 0.1 mg/mL streptomycin, under sterile conditions and an atmosphere of 5% CO2 and 95% air at 37 °C. Samples were dissolved in DMSO. The lenses were divided into three groups and cultured in medium containing 30 mM glucose and RLAR-active compounds. Each lens was placed in a well containing 2.0 mL of medium. Sorbitol was determined by HPLC using the methods mentioned in the section of 4.7 after its derivatization by reaction with benzoic acid to a fluorescent compound [42].

[2] = DPPH free radical scavenging capacity
Method: The stable free radical was used to determine the free radical-scavenging activity of the extracts. Briefly, a 0.32 mM solution of DPPH in MeOH was prepared, and 180 µL of this solution was mixed with 30 µL of each sample at concentrations of 0.05–1.0 mg/mL in DMSO. After 20 min of incubation in the darkroom, the decrease in the absorbance of the solution was measured at 570 nm on a microplate reader (EL800 Universal Microplate reader, Bio-Tek instruments, Winooski, VT, USA). DPPH inhibitory activity was expressed as the percentage inhibition (%) of DPPH in the aforementioned assay system, and was calculated as [1 − (Asample − Ablank/Acontrol − Ablank)] × 100%, where Acontrol is the absorbance of DPPH solution (180 µL) with methanol (30 µL); Ablank is the absorbance of distilled water (180 µL) with methanol (30 µL); Asample is the absorbance of DPPH solution (180 µL) with sample solution (30 µL).

[3] = biological target: T1, rat lens aldose reductase (RLAR) (Rattus norvegicus, UniProt P07943); test: Determination of RLAR inhibition in vitro (NADPH decrease at 340 nm, DL-glyceraldehyde substrate); format: biochemical; parameters: inhibition: dose or concentration left out as unconfirmed; settings: for IC50: Experiments; for inhibition: Table 2, printed under head DPPH/Experiments;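 for all read-outs here: crude enzyme from Sprague–Dawley rat lens homogenate supernatant, absorbance read over 3 min in pH 6.2 potassium phosphate buffer with 1.6 mM NADPH and 25 mM substrate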
T1 construct: The supernatant was collected and used as the RLAR; from tissue; host or cells: Sprague–Dawley rat lens homogenate, 10,000 x g supernatant
Method: Crude RLAR was prepared as follows: lenses weighing 250–280 g were removed from Sprague–Dawley rats and frozen at −70 °C until use. […] Non-cataractous transparent lenses were pooled and a homogenate was prepared in 0.1 M phosphate-buffered saline (pH 6.2). RLAR homogenate was then centrifuged at 10,000× g for 20 min at 4 °C in a refrigerated centrifuge. The supernatant was collected and used as the RLAR. All procedures were carried out at 4 °C [37].
RLAR activity was assayed spectrophotometrically by measuring the decrease in the absorption of NADPH at 340 nm over a 3-min period using DL-glyceraldehyde as the substrate. Each 1.0 mL cuvette contained equal units of the enzyme, 0.10 M potassium phosphate buffer (pH 6.2), 1.6 mM NADPH, 25 mM DL-glyceraldehyde (the substrate), and an inhibitor or dimethyl sulfoxide (DMSO).

[4] = biological target: T2, recombinant human aldose reductase (RHAR) (Homo sapiens, UniProt P15121); test: Determination of inhibition type of RHAR (Lineweaver-Burk plots); format: biochemical; settings: DL-glyceraldehyde 1.0 to 25.0 mM
T2 construct: purchased Wako Pure Chemical Industries (Osaka, Japan)
Method: Reaction mixtures consisted of 0.1 M potassium phosphate, 1.6 mM NADPH, and 2 mM of RHAR with varied concentrations of substrate DL-glyceraldehyde and AR inhibitor in a total volume of 600 μL. […] RHAR activity was assayed by measuring the decrease in absorption of NADPH after substrate addition at 340 nm using a Bio Tek Power Wave XS spectrophotometer (Bio Tek Instruments, Winooski, VT, USA) [41].

[5] = biological target: T1, rat lens aldose reductase (RLAR)
[6] = Offline DPPH HPLC assay of the n-BuOH fraction (peak area reduction); settings: n-BuOH fraction 20 mg/mL mixed with […] DPPH, 20 min, HPLC 254 nm
Method: The sample was analyzed using an Agilent Technologies modular model 1200 system with a vacuum degasser (G1322A), a quaternary pump (G1311A), an auto-sampler (G1329A), a thermo-statted column compartment (G1316A), and a variable wavelength detector (VWD, G1314D) system. The separation was achieved on an Eclipse XDB-phenyl column (150 mm × 4.6 mm, 3.5 μm) maintained at 30 °C. The elution solvents were 0.1% trifluoroacetic acid (A) and MeOH (B) with the following gradient: 20%–30% B (0–3 min), 30%–40% B (3–10 min), 40%–50% B (10–20 min), 50%–60% B […], 60%–100% B (25–35 min), 100%–100% B (35–38 min), 100%–20% B (38–40 min), and 20%–20% B (40–45 min). Injection volume was 10 µL (sample concentration: 1 mg/mL) and UV wavelength was 254 nm.
The offline DPPH HPLC assay was performed by modifying a previously-described protocol. Thirty microliters (20 mg/mL in MeOH) of the n-BuOH fraction from APE were mixed with 180 μL prepared DPPH solution (0.32 mM). The mixture was incubated in the dark for 20 min, then filtered through a 0.45-μm filter for HPLC analysis. The n-BuOH (20 mg/mL in MeOH) was used as a control. The extent of peak decrease is expressed as a quantitative reduction.

[7] = biological target: T2, recombinant human aldose reductase (RHAR); settings: cited from earlier work; for Inhibition type (References): Table 3; for inhibition pattern against RHAR: ref Lee et al., Ha et al., Chethan et al. 31, 32, 33
[8] = literature value; read-out: RLAR IC50 (References); cited from earlier work

C[C@@H]1O[C@@H](Oc2c(-c3ccc(O)cc3)oc3cc(O)cc(O)c3c2=O)[C@H](O)[C@H](O)[C@H]1O [Afzelin (AZ), afzelin]
Inhibition (%) of sorbitol accumulation in rat lens [1]: 93.2 ± 8.67%
Sorbitol Content (mg)/Lens Wet Weight (g) [1]: 0.10 ± 0.01 mg/g
DPPH free radical scavenging activity (in words) [2]: no DPPH free radical scavenging activity
IC50 [2]: > 250 µM

O=C(OC1OC2COC(=O)c3cc(O)c(O)c(O)c3-c3c(cc(O)c(O)c3O)C(=O)OC2C2OC(=O)c3cc(O)c(O)c(O)c3-c3c(cc(O)c(O)c3O)C(=O)OC12)c1cc(O)c(O)c(Oc2c(C(=O)OC3OC4COC(=O)c5cc(O)c(O)c(O)c5-c5c(cc(O)c(O)c5O)C(=O)OC4C4OC(=O)c5cc(O)c(O)c(O)c5-c5c(cc(O)c(O)c5O)C(=O)OC34)cc(O)c(O)c2O)c1 (stereo not drawn) [Agrimoniin (AM), agrimoniin]
Inhibition (%) of sorbitol accumulation in rat lens [1]: 47.6 ± 1.34%
Sorbitol Content (mg)/Lens Wet Weight (g) [1]: 0.77 ± 0.02 mg/g
IC50 [2]: 13 ± 0.06 µM
IC50 [3]: 1.6 ± 0.12 µM
Inhibition type [4]: Noncompetitive

O=c1cc(-c2ccc(O)cc2)oc2cc(O)cc(O)c12 [Apigenin (AG), apigenin]
IC50 [2]: 156.3 ± 1.21 µM
IC50 [3]: 3.2 ± 0.21 µM
inhibition [3]: 81.8 ± 1.2%
IC50 ([5]; read-out: RLAR IC50 (References); literature value; cited from earlier work): 2.2 µM

O=c1cc(-c2ccc(O)cc2)oc2cc(O[C@@H]3O[C@H](CO)[C@@H](O)[C@H](O)[C@H]3O)cc(O)c12 [Apigenin-7-O-glucoside (AGC), apigenin-7-O-glucoside]
DPPH free radical scavenging activity (in words) [2]: almost no DPPH free radical scavenging activity
IC50 [2]: > 250 µM
peak area reduction (PAR) [6]: lower than 20.0%
IC50 [3]: 4.3 ± 0.14 µM
inhibition [3]: 40.2 ± 0.56%
IC50 [5, 8]: 23 µM

O=C(O)[C@H]1O[C@@H](Oc2cc(O)c3c(=O)cc(-c4ccc(O)cc4)oc3c2)[C@H](O)[C@@H](O)[C@@H]1O [Apigenin-7-O-glucuronide (AGN), apigenin-7-O-glucuronide]
DPPH free radical scavenging activity (in words) [2]: almost no DPPH free radical scavenging activity
IC50 [2]: > 250 µM
peak area reduction (PAR) [6]: lower than 20.0%
RLAR inhibitory activity (in words) [3]: inactive
IC50 [3]: > 30 µM
inhibition [3]: < 0%

O=c1c(O[C@@H]2O[C@H](CO)[C@@H](O)[C@H](O)[C@H]2O)c(-c2ccc(O)cc2)oc2cc(O)cc(O)c12 [Astragalin (AS), astragalin]
DPPH free radical scavenging activity (in words) [2]: no DPPH free radical scavenging activity
IC50 [2]: > 250 µM
IC50 [3]: 5.1 ± 0.89 µM
inhibition [3]: 53.3 ± 1.14%
IC50 [5, 8]: > 30 µM

Oc1cc(O)c2c(c1)OC(c1ccc(O)c(O)c1)C(O)C2 (stereo not drawn) [Catechin (CT), catechin]
IC50 [2]: 106.7 ± 0.43 µM
IC50 [3]: > 30 µM
inhibition [3]: 7.2 ± 1.02%
IC50 [5, 8]: > 30 µM

O=c1c(O[C@@H]2O[C@H](CO)[C@H](O)[C@H](O)[C@H]2O)c(-c2ccc(O)c(O)c2)oc2cc(O)cc(O)c12 [Hyperin (HP), hyperin]
IC50 [2]: 73.3 ± 0.23 µM
IC50 [3]: 4.1 ± 0.32 µM
inhibition [3]: 90.8 ± 0.96%
IC50 [5, 8]: 3 µM

O=c1c(O[C@@H]2O[C@H](CO)[C@@H](O)[C@H](O)[C@H]2O)c(-c2ccc(O)c(O)c2)oc2cc(O)cc(O)c12 [Isoquercitrin (IQC), Isoquercitrin]
IC50 [2]: 65.9 ± 0.46 µM
IC50 [3]: 5.1 ± 0.88 µM
inhibition [3]: 41 ± 1.07%
IC50 [5, 8]: 4.5 µM

O=c1c(O)c(-c2ccc(O)cc2)oc2cc(O)cc(O)c12 [Kaempferol (KP), kaempferol]
IC50 [2]: 91.6 ± 0.68 µM
IC50 [3]: 15.2 ± 1.32 µM
inhibition [3]: 11.8 ± 0.81%
IC50 [5, 8]: 10 µM

O=C1O[C@H]([C@@H](O)CO)C(O)=C1O [L-Ascorbic acid, L-ascorbic acid]
IC50 [2]: 147.3 ± 0.43 µM
Inhibition (%) DPPH ([2]; Table 1, concentration not in table, text b9: crude extract 7.1 μg/mL): 81.0 ± 0.01%

O=c1cc(-c2ccc(O)c(O)c2)oc2cc(O)cc(O)c12 [Luteolin (LT), luteolin]
Inhibition type (References) [7]: Mixed type [30]
inhibition pattern against RHAR [7]: mixed-type
Inhibition (%) of sorbitol accumulation in rat lens [1]: 91.8 ± 7.91%
Sorbitol Content (mg)/Lens Wet Weight (g) [1]: 0.12 ± 0.01 mg/g
IC50 [2]: 88.2 ± 0.52 µM
inhibition [3]: 80.2 ± 0.9%

O=c1cc(-c2ccc(O)c(O)c2)oc2cc(O[C@@H]3O[C@H](CO)[C@@H](O)[C@H](O)[C@H]3O)cc(O)c12 [Luteolin-7-O-glucoside (LGC), luteolin-7-O-glucoside]
IC50 [2]: 71.5 ± 0.29 µM
peak area reduction (PAR) [6]: lower than 20.0%
IC50 [3]: 8.1 ± 0.72 µM
inhibition [3]: 46.9 ± 0.95%
IC50 [5, 8]: 7.5 µM

O=C(O)[C@H]1O[C@@H](Oc2cc(O)c3c(=O)cc(-c4ccc(O)c(O)c4)oc3c2)[C@H](O)[C@@H](O)[C@@H]1O [Luteolin-7-O-glucuronide (LGN), luteolin-7-O-glucuronide]
Inhibition (%) of sorbitol accumulation in rat lens [1]: 91.8 ± 9.01%
Sorbitol Content (mg)/Lens Wet Weight (g) [1]: 0.12 ± 0.01 mg/g
IC50 [2]: 80.6 ± 0.38 µM
peak area reduction (PAR) [6]: lower than 20.0%
IC50 [3]: 0.7 ± 0.54 µM
inhibition [3]: 83.3 ± 0.88%
Inhibition type [4]: Noncompetitive
IC50 [5, 8]: 3.1 µM

O=c1c(O)c(-c2ccc(O)c(O)c2)oc2cc(O)cc(O)c12 [Quercetin (QC), quercetin]
Inhibition type (References) [7]: Noncompetitive [31]
inhibition pattern against RHAR [7]: noncompetitive
Inhibition (%) of sorbitol accumulation in rat lens [1]: 85.7 ± 8.32%
Sorbitol Content (mg)/Lens Wet Weight (g) [1]: 0.21 ± 0.02 mg/g
IC50 [2]: 70.4 ± 0.15 µM
inhibition at 10 µg/mL [3]: 74.1 ± 0.85%

C[C@@H]1O[C@@H](Oc2c(-c3ccc(O)c(O)c3)oc3cc(O)cc(O)c3c2=O)[C@H](O)[C@H](O)[C@H]1O [Quercitrin (QU), quercitrin]
Inhibition type (References) [7]: Uncompetitive [29]
inhibition pattern against RHAR [7]: uncompetitive
Inhibition (%) of sorbitol accumulation in rat lens [1]: 76.9 ± 5.32%
Sorbitol Content (mg)/Lens Wet Weight (g) [1]: 0.34 ± 0.02 mg/g
IC50 [2]: 77.9 ± 0.27 µM
inhibition at 10 µg/mL [3]: 97.4 ± 1.38%
IC50 [3]: 0.2 ± 0.02 µM
RLAR potency relative to positive control TMG (times higher) ([3]; IC50 0.2 μM vs TMG 0.5 μM): 2.5 times

C[C@@H]1O[C@@H](OC[C@H]2O[C@@H](Oc3c(-c4ccc(O)c(O)c4)oc4cc(O)cc(O)c4c3=O)[C@H](O)[C@@H](O)[C@@H]2O)[C@H](O)[C@H](O)[C@H]1O [Rutin (RT), rutin]
IC50 [2]: 66.8 ± 0.34 µM
peak area reduction (PAR) [6]: lower than 20.0%
IC50 [3]: 9.5 ± 0.75 µM
inhibition [3]: 31.7 ± 0.65%

O=C(O)CC1(CC(=O)O)CCCC1 [TMG, tetramethylene glutaric acid]
IC50 [3]: 0.5 ± 0.05 µM
Inhibition (%) RLAR ([3]; Table 1, concentration not in table, text b9: crude extract 10.0 μg/mL, EtOAc, n-BuOH fractions and TMG 1.0 μg/mL): 99.7 ± 0.11%
IC50 [5, 8]: 1 µM

O=c1cc(-c2ccc(O)cc2)oc2c([C@@H]3O[C@H](CO)[C@@H](O)[C@H](O)[C@H]3O)c(O)cc(O)c12 [Vitexin (VT), vitexin]
DPPH free radical scavenging activity (in words) [2]: no DPPH free radical scavenging activity
IC50 [2]: > 250 µM
IC50 [3]: > 30 µM
inhibition [3]: 12.2 ± 0.95%
IC50 [5, 8]: > 30 µM
